Assay results: ChEMBL document CHEMBL4811267, “Structurally Diverse Diterpenoids from the Roots of Salvia deserta Based on Nine Different Skeletal Types” (J Nat Prod, 2021)

Key:
BEAS-2B = experiment: Cytotoxicity against human BEAS2B cells assessed as reduction in cell viability after 48 hrs by MTS assay; format: cell-based
SMMC-7721 = experiment: Cytotoxicity against human SMMC-7721 cells assessed as reduction in cell viability after 48 hrs by MTS assay; format: functional, cell-based; details: SMMC-7721, 48 h
SW480 = experiment: Cytotoxicity against human SW480 cells assessed as reduction in cell viability after 48 hrs by MTS assay; format: functional, cell-based; details: SW480, 48 h
HL-60 = experiment: Cytotoxicity against human HL60 cells assessed as reduction in cell viability after 48 hrs by MTS assay; format: functional, cell-based; details: HL-60, 48 h
MCF7 = experiment: Cytotoxicity against human MCF7 cells assessed as reduction in cell viability after 48 hrs by MTS assay; format: functional, cell-based; details: MCF7, 48 h
A549 = experiment: Cytotoxicity against human A549 cells assessed as reduction in cell viability after 48 hrs by MTS assay; format: functional, cell-based; details: A549, 48 h

Work on CC(C)c1c(O)c(C=O)c2c(c1O)OC(O)[C@H]1C(C)(C)CCC[C@]21C (some centres undefined) yielded an IC50 (BEAS-2B) greater than 10 µM, an IC50 (SMMC-7721) greater than 10 µM and an IC50 (SW480) greater than 10 µM. For the same compound, the IC50 (HL-60) was greater than 10 µM, the IC50 (MCF7) was greater than 10 µM and the IC50 (A549) was greater than 10 µM.
In the case of CC(C)c1cc2c(c(O)c1O)[C@@]1(C)CCCC(C)(C)C1=CC2=O [SALVINOLONE], the IC50 (BEAS-2B) is reported as greater than 10 µM, the IC50 (SMMC-7721) is reported as greater than 10 µM and the IC50 (SW480) is reported as greater than 10 µM. It also gave an IC50 (HL-60) greater than 10 µM, an IC50 (MCF7) greater than 10 µM and an IC50 (A549) greater than 10 µM.
CC(C)c1cc2c(cc1O)C=C[C@H]1C(C)(C)CCC[C@]21C showed an IC50 (BEAS-2B) greater than 10 µM, an IC50 (SMMC-7721) greater than 10 µM and an IC50 (SW480) greater than 10 µM. The IC50 (HL-60) was greater than 10 µM, the IC50 (MCF7) was greater than 10 µM and the IC50 (A549) was greater than 10 µM.
With CC(C)c1cc2c(c(O)c1O)[C@@]1(C)CCC[C@](C)(CO)C1=C(O)C2=O the IC50 (BEAS-2B) was greater than 10 µM, the IC50 (SMMC-7721) was greater than 10 µM and the IC50 (SW480) was greater than 10 µM. The IC50 (HL-60) was greater than 10 µM, the IC50 (MCF7) was greater than 10 µM and the IC50 (A549) was greater than 10 µM.
Work on CC(C)C1=C(O)C(=O)C2=C(C=C[C@H]3C(C)(C)CCC[C@]3(C)O2)C1=O yielded an IC50 (BEAS-2B) greater than 10 µM, an IC50 (SMMC-7721) greater than 10 µM and an IC50 (SW480) greater than 10 µM. It also gave an IC50 (HL-60) greater than 10 µM, an IC50 (MCF7) greater than 10 µM and an IC50 (A549) greater than 10 µM.
Work on CC(C)c1cc(C(=O)O)c2c(c1O)O[C@]1(O)[C@@](C)(CO)CCC[C@]21C yielded an IC50 (BEAS-2B) greater than 10 µM, an IC50 (SMMC-7721) greater than 10 µM and an IC50 (SW480) greater than 10 µM. It also gave an IC50 (HL-60) greater than 10 µM, an IC50 (MCF7) greater than 10 µM and an IC50 (A549) greater than 10 µM.
With CC(C)C1=C(O)C(=O)C2=C(C1=O)[C@H](O)[C@H]1C(C)(C)CCC[C@]21C the IC50 (BEAS-2B) was greater than 10 µM, the IC50 (SMMC-7721) was greater than 10 µM and the IC50 (SW480) was greater than 10 µM. It also gave an IC50 (HL-60) greater than 10 µM, an IC50 (MCF7) greater than 10 µM and an IC50 (A549) greater than 10 µM.
For Cc1ccc2cc(C(C)C)c(O)c3c2c1C(=O)CCC(C)(C)O3, the IC50 (BEAS-2B) was greater than 10 µM, the IC50 (SMMC-7721) was greater than 10 µM and the IC50 (SW480) was greater than 10 µM. It also gave an IC50 (HL-60) greater than 10 µM, an IC50 (MCF7) greater than 10 µM and an IC50 (A549) greater than 10 µM.
With CC(C)C1=C[C@]23CC[C@@H]4C(=CCCC4(C)C)[C@H]2CC(=O)[C@]3(O)C1=O the IC50 (BEAS-2B) was greater than 10 µM, the IC50 (SMMC-7721) was greater than 10 µM and the IC50 (SW480) was greater than 10 µM. The IC50 (HL-60) was greater than 10 µM, the IC50 (MCF7) was greater than 10 µM and the IC50 (A549) was greater than 10 µM.
Compound CC(C)c1c(O)c(O)c2c(c1C=O)[C@H](O)[C@H]1C(C)(C)CCC[C@]21C has an IC50 (BEAS-2B) greater than 10 µM, an IC50 (SMMC-7721) greater than 10 µM and an IC50 (SW480) greater than 10 µM. For the same compound, the IC50 (HL-60) was greater than 10 µM, the IC50 (MCF7) was greater than 10 µM and the IC50 (A549) was greater than 10 µM.
CC(C)c1cc2c(cc1O)C(=O)C[C@H]1C(C)(C)CCC[C@]21C gave an IC50 (BEAS-2B) greater than 10 µM, an IC50 (SMMC-7721) greater than 10 µM and an IC50 (SW480) greater than 10 µM. The IC50 (HL-60) was greater than 10 µM, the IC50 (MCF7) was greater than 10 µM and the IC50 (A549) was greater than 10 µM.
CC(C)C1=C(O)C(=O)C2=C(C=C3C(C)(C)CCC[C@@]32C)C1=O showed an IC50 (BEAS-2B) greater than 10 µM, an IC50 (SMMC-7721) greater than 10 µM and an IC50 (SW480) greater than 10 µM. The IC50 (HL-60) was greater than 10 µM, the IC50 (MCF7) was greater than 10 µM and the IC50 (A549) was greater than 10 µM.
Compound CC(C)c1cc2c(c(O)c1O)[C@@]1(C)CCCC(C)(C)C1=C(O)C2=O [14-DEOXYCOLEON U] has an IC50 (BEAS-2B) greater than 10 µM, an IC50 (SMMC-7721) of 9.2 µM and an IC50 (SW480) greater than 10 µM. The IC50 (HL-60) was 6.2 µM, the IC50 (MCF7) was 5.6 µM and the IC50 (A549) was 8.4 µM.
With CC(C)c1cc(C(=O)O)c2c(c1O)O[C@]1(O)C(C)(C)[C@@H](O)CC[C@]21C the IC50 (BEAS-2B) was greater than 10 µM, the IC50 (SMMC-7721) was greater than 10 µM and the IC50 (SW480) was greater than 10 µM. For the same compound, the IC50 (HL-60) was greater than 10 µM, the IC50 (MCF7) was greater than 10 µM and the IC50 (A549) was greater than 10 µM.
CC(C)c1cc(O)c2c(c1O)C(=O)C[C@H]1C(C)(C)CCC[C@]21C was tested, and the IC50 (BEAS-2B) was greater than 10 µM, the IC50 (SMMC-7721) was greater than 10 µM and the IC50 (SW480) was greater than 10 µM. The IC50 (HL-60) was greater than 10 µM, the IC50 (MCF7) was greater than 10 µM and the IC50 (A549) was greater than 10 µM.
With CC(C)c1cc2c(cc1O)[C@@]1(C)CC[C@H](O)C(C)(C)[C@@H]1CC2 [HINOKIOL] the IC50 (BEAS-2B) was greater than 10 µM, the IC50 (SMMC-7721) was greater than 10 µM and the IC50 (SW480) was greater than 10 µM. It also gave an IC50 (HL-60) greater than 10 µM, an IC50 (MCF7) greater than 10 µM and an IC50 (A549) greater than 10 µM.
With COc1c(C(C)C)cc2c(c1O)[C@@]1(C)CCCC(C)(C)[C@@H]1CC2=O [CRYPTOJAPONOL] the IC50 (BEAS-2B) was greater than 10 µM, the IC50 (SMMC-7721) was greater than 10 µM and the IC50 (SW480) was greater than 10 µM. The IC50 (HL-60) was greater than 10 µM, the IC50 (MCF7) was greater than 10 µM and the IC50 (A549) was greater than 10 µM.
For CC(C)c1cc2c(c(O)c1O)[C@@]1(C)CCCC(C)(C)[C@@H]1CC2=O [DEMETHYLCRYPTOJAPONOL], the IC50 (BEAS-2B) was greater than 10 µM, the IC50 (SMMC-7721) was greater than 10 µM and the IC50 (SW480) was greater than 10 µM. The IC50 (HL-60) was greater than 10 µM, the IC50 (MCF7) was greater than 10 µM and the IC50 (A549) was greater than 10 µM.
Work on COc1c(O)c2c(c(C=O)c1C(C)C)[C@H](O)[C@H]1C(C)(C)CCC[C@]21C yielded an IC50 (BEAS-2B) greater than 10 µM, an IC50 (SMMC-7721) greater than 10 µM and an IC50 (SW480) greater than 10 µM. For the same compound, the IC50 (HL-60) was greater than 10 µM, the IC50 (MCF7) was greater than 10 µM and the IC50 (A549) was greater than 10 µM.
In the case of CC(C)c1cc(C=O)c2c(c1O)OC(O)[C@H]1C(C)(C)CCC[C@]21C (some centres undefined), the IC50 (BEAS-2B) is reported as greater than 10 µM, the IC50 (SMMC-7721) is reported as greater than 10 µM and the IC50 (SW480) is reported as greater than 10 µM. For the same compound, the IC50 (HL-60) was greater than 10 µM, the IC50 (MCF7) was greater than 10 µM and the IC50 (A549) was greater than 10 µM.
CC(C)c1cc2c(cc1O)[C@@]1(C)C[C@H](O)CC(C)(C)[C@@H]1CC2 was tested, and the IC50 (BEAS-2B) was greater than 10 µM, the IC50 (SMMC-7721) was greater than 10 µM and the IC50 (SW480) was greater than 10 µM. The IC50 (HL-60) was greater than 10 µM, the IC50 (MCF7) was greater than 10 µM and the IC50 (A549) was greater than 10 µM.
Work on CC(C)c1cc2c(cc1O)[C@@]1(C)CCCC(C)(C)[C@@H]1CC2=O [SUGIOL] yielded an IC50 (BEAS-2B) greater than 10 µM, an IC50 (SMMC-7721) greater than 10 µM and an IC50 (SW480) greater than 10 µM. For the same compound, the IC50 (HL-60) was greater than 10 µM, the IC50 (MCF7) was greater than 10 µM and the IC50 (A549) was greater than 10 µM.
CC(C)c1cc2c(c(O)c1O)[C@@]1(C)CCCC(C)(C)[C@@H]1[C@H](O)C2=O was tested, and the IC50 (BEAS-2B) was greater than 10 µM, the IC50 (SMMC-7721) was greater than 10 µM and the IC50 (SW480) was greater than 10 µM. For the same compound, the IC50 (HL-60) was greater than 10 µM, the IC50 (MCF7) was greater than 10 µM and the IC50 (A549) was greater than 10 µM.
CO[C@@H]1C2=C(C(=O)C(O)=C(C(C)C)C2=O)[C@@]2(C)CCCC(C)(C)[C@H]12 gave an IC50 (BEAS-2B) greater than 10 µM, an IC50 (SMMC-7721) greater than 10 µM and an IC50 (SW480) greater than 10 µM. The IC50 (HL-60) was greater than 10 µM, the IC50 (MCF7) was greater than 10 µM and the IC50 (A549) was greater than 10 µM.
